From patent publication US20240374591A1, “CEREBLON BINDING COMPOUNDS, COMPOSITIONS THEREOF, AND METHODS OF TREATMENT THEREWITH” (CELGENE CORPORATION, priority 2021, published 2024) come the findings set out here.

This test addresses T1, AR in VCaP cells (Homo sapiens, UniProt P10275).
T1 construct: endogenous in cells; host or cells: VCaP cells
T1 sequence (P10275 1-920): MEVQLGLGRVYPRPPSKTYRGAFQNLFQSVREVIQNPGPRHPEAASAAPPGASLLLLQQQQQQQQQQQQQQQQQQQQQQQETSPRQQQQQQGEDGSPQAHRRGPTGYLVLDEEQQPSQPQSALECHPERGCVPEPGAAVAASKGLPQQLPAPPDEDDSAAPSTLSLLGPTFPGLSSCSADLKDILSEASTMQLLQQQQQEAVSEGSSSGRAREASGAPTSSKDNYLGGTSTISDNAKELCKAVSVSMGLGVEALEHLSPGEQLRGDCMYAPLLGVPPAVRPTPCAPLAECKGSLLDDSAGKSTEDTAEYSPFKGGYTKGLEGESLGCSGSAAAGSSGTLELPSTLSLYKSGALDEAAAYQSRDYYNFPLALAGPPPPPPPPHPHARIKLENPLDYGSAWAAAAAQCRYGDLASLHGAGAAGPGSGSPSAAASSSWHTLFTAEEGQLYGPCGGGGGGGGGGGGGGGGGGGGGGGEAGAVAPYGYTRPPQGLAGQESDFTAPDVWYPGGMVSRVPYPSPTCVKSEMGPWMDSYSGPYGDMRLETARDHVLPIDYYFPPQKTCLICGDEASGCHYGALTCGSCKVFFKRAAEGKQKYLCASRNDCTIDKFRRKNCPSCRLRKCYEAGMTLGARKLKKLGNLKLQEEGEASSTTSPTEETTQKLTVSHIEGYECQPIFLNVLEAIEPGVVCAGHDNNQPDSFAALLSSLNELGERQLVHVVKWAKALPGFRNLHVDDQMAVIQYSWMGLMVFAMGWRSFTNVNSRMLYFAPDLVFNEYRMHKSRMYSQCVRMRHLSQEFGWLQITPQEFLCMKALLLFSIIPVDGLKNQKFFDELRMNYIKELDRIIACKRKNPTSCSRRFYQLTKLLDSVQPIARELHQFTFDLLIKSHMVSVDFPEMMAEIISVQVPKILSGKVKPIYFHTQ
The experiment in a line: VCAP AR Degradation Assay (AR ELISA, 24 h). It counts as cell-based. The note with it: for DC50: concentration giving 50% AR degradation vs DMSO control; for remaining activity at up to 5 µM: lowest measured AR level normalized to DMSO control, top concentration 5 μM, read-out: Y. The method, then: VCAP AR Degradation Assay. Test compounds were pre-dispensed into a Corning CellBind 96-well clear bottom plate (Cat #3300) using an acoustic dispenser to make a 10-point concentration series at 1:3 dilution for each compound. The final top concentration of each compound was 5 μM. DMSO at a final concentration of 0.1% was used as a control. VCaP cells cultured in DMEM with 8% fetal bovine serum (FBS) were seeded at 50K cells per well in a 200 μL volume into the compound plate and incubated at 37° C. in a CO2 incubator for 24 h. The medium was carefully removed from the cells and the plate was placed on ice. One hundred μL of ice-cold 1× cell lysis buffer from Cell Signaling Technologies (Cat #9803) was added to each well of the cells and the plate was incubated at 4° C. on a shaker for 1 h. Fifteen μL of cell lysate was used for AR ELISA detection using a PathScan Total Sandwich AR ELISA kit (Cell Signaling Technology, Cat #12580). AR levels in compound-treated wells were normalized to that of DMSO control and expressed as percent of control (PoC) (y). A Four Parameter Logistic Model (Sigmoidal Dose-Response Model) was used to determine the compound's DC50, and EC50, using the following equation: […]
The lowest measured AR level normalized to DMSO control in response to compound treatment, termed Y value, was used to characterize the compound-mediated AR degradation efficiency.
(In general: In an ELISA, binding on a coated surface is turned into a signal by an enzyme label.)

Each structure is given as a SMILES string. Counter-ions that a name gives are not always drawn.

On to `C[C@@H]1CN(CCO[C@H]2CC[C@H](N3C(=S)N(c4ccc(C#N)c(C(F)(F)F)c4)C(=O)C3(C)C)CC2)C[C@H](C)N1CCC(=O)Nc1ccc(N2CCC(=O)NC2=O)nc1` [Cmpd 9, 3-((2R,6S)-4-(2-((trans-4-(3-(4-Cyano-3-(trifluoromethyl)phenyl)-5,5-dimethyl-4-oxo-2-thioxoimidazolidin-1-yl)cyclohexyl)oxy)ethyl)-2,6-dimethylpiperazin-1-yl)-N-(6-(2,4-dioxotetrahydropyrimidin-1(2H)-yl)pyridin-3-yl)propanamide], for which the DC50 (usually the concentration at which degradation of the target reaches its halfway point) lay in the range of 10 to 100 nM and the remaining activity at up to 5 µM was in the range of 30 to 70%.
In the case of `C[C@@H]1CN(CCCC[C@H]2CC[C@H](N3C(=S)N(c4ccc(C#N)c(C(F)(F)F)c4)C(=O)C3(C)C)CC2)C[C@H](C)N1CC(=O)Nc1ccc(C2CCC(=O)NC2=O)nc1` (stereo partly drawn) [Cmpd 16, 2-((2R,6S)-4-(4-((trans)-4-(3-(4-Cyano-3-(trifluoromethyl)phenyl)-5,5-dimethyl-4-oxo-2-thioxoimidazolidin-1-yl)cyclohexyl)butyl)-2,6-dimethylpiperazin-1-yl)-N-(6-(2,6-dioxopiperidin-3-yl)pyridin-3-yl)acetamide], the DC50 was at most 5 nM and the remaining activity at up to 5 µM was in the range of 20 to 30%.
`C[C@@H]1C[C@H](OCCO[C@H]2CC[C@H](N3C(=S)N(c4ccc(C#N)c(C(F)(F)F)c4)C(=O)C3(C)C)CC2)C[C@H](C)N1CC(=O)Nc1ccc(C2CCC(=O)NC2=O)nc1` (stereo partly drawn) [Cmpd 29, 2-((2R,4r,6S)-4-(2-(((trans)-4-(3-(4-Cyano-3-(trifluoromethyl)phenyl)-5,5-dimethyl-4-oxo-2-thioxoimidazolidin-1-yl)cyclohexyl)oxy)ethoxy)-2,6-dimethylpiperidin-1-yl)-N-(6-(2,6-dioxopiperidin-3-yl)pyridin-3-yl)acetamide]: the DC50 was at most 5 nM and the remaining activity at up to 5 µM was 20 to 30%.
As to `C[C@@H]1CN(CCCO[C@H]2CC[C@H](N3C(=S)N(c4ccc(C#N)c(C(F)(F)F)c4)C(=O)C3(C)C)CC2)C[C@H](C)N1CC(=O)Nc1ccc(C2CCC(=O)NC2=O)nc1` (stereo partly drawn) [Cmpd 5, 2-((2R,6S)-4-(3-((trans-4-(3-(4-Cyano-3-(trifluoromethyl)phenyl)-5,5-dimethyl-4-oxo-2-thioxoimidazolidin-1-yl)cyclohexyl)oxy)propyl)-2,6-dimethylpiperazin-1-yl)-N-(6-(2,6-dioxopiperidin-3-yl)pyridin-3-yl)acetamide hydrochloride], the DC50 is at most 5 nM and the remaining activity at up to 5 µM was in the range of 20 to 30%.
In the case of `CC1(C)C(=O)N(c2cnc(C#N)c(C(F)(F)F)c2)C(=S)N1[C@H]1CC[C@H](CCCN2CCN(CC(=O)Nc3ccc(C4CCC(=O)NC4=O)nc3)[C@@H](C(F)(F)F)C2)CC1` (stereo partly drawn) [Cmpd 21, 2-((R)-4-(3-((trans)-4-(3-(6-Cyano-5-(trifluoromethyl)pyridin-3-yl)-5,5-dimethyl-4-oxo-2-thioxoimidazolidin-1-yl)cyclohexyl)propyl)-2-(trifluoromethyl)piperazin-1-yl)-N-(6-(2,6-dioxopiperidin-3-yl)pyridin-3-yl)acetamide], the DC50 was at most 5 nM and the remaining activity at up to 5 µM was 0 to 20%.
For `C[C@@H]1CN(CCCO[C@H]2CC[C@H](N3C(=S)N(c4cnc(C#N)c(C(F)(F)F)c4)C(=O)C3(C)C)CC2)C[C@H](C)N1CC(=O)Nc1ccc(C2CCC(=O)NC2=O)nc1` (stereo partly drawn) [Cmpd 4, 2-((2R,6S)-4-(3-((trans-4-(3-(6-Cyano-5-(trifluoromethyl)pyridin-3-yl)-5,5-dimethyl-4-oxo-2-thioxoimidazolidin-1-yl)cyclohexyl)oxy)propyl)-2,6-dimethylpiperazin-1-yl)-N-(6-(2,6-dioxopiperidin-3-yl)pyridin-3-yl)acetamide hydrochloride] the same measures were at most 5 nM and 20 to 30%.
